Measurements as given in BindingDB's records for patent US11707539 (Tufts College, 2023).
“And” between values parts separate entries of the source, which are not always exact repeats. Identical values can stand only once. Where a SMILES comes first, the peptide text is derived from it.

What was measured:
Test in all cases: In Vitro Assay Dipeptidyl Peptidase IV. Fibroblast Activation Protein and Prolyl Oligopeptidase
Prolyl endopeptidase FAP = target: T1, Prolyl endopeptidase FAP (Homo sapiens, UniProt Q12884)
T1 sequence (Q12884 whole entry): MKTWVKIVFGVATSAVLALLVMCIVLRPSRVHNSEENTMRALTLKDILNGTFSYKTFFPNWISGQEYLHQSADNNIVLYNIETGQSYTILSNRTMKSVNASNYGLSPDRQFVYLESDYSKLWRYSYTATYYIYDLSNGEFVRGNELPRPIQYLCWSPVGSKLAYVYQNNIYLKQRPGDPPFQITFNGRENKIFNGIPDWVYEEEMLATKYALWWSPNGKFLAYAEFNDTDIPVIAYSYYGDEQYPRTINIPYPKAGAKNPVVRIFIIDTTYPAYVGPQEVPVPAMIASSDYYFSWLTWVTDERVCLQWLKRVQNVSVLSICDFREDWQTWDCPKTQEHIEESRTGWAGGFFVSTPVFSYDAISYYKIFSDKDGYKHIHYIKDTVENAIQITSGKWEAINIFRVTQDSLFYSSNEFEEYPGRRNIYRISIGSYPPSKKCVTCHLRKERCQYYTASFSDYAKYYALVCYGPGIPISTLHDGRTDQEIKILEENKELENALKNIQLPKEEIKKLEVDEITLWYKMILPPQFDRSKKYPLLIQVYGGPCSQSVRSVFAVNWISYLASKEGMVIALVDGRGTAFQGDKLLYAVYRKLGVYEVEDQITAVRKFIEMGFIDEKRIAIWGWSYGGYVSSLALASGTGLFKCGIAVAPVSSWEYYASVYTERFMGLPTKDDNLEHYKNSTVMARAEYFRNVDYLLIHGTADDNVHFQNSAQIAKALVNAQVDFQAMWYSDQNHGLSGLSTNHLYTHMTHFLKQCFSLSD
Protocol: (§1) The purpose of this assay is to determine the IC50 of various inhibitors against recombinant human dipeptidyl peptidase IV (DPPIV), fibroblast activation protein (FAP) or prolyl oligopeptidase (PREP). The assays are conducted in the following steps:1 Dissolve the compound in DMSO to a final concentration of […]. […] Serial dilute (1:10) the 1 mM compound stocks prepared previously into the appropriate assay buffer (FAP: 50 mM Tris, 140 mM NaCl, pH 7.5/PREP: 25 mM Tris, 0.25 M NaCl, pH 7.5/DPPIV: 25 mM Tris, pH 8.0) to one row of a 96-well plate. 3. […] 4. Dilute the enzymes into their appropriate assay buffers. The final enzyme concentrations should be 0.1, 1.2, and 0.6 nM for DPPIV, FAP and PREP respectively. Add 180 μL to each well needed in columns 2-10. Column 1 (A,B,C) should be prepared with 200 ul of appropriate assay buffer as control. Column 1 (D,E,F,G,H) should be prepared with 20 ul of appropriate assay buffer and 180 ul enzyme as no inhibitor control. 5. Add 20 μL of the compound of interest from the dilution plate prepared in step 2 to columns 2-10 of the assay plate where appropriate. Each sample should be tested in triplicate. Allow this to incubate for 10 minutes at room temperature, shaking the plate for the first two minutes. 6. Add 10 μL of 20× substrate prepared in step 3 to each well and allow this to incubate for 15 minutes at room temperature, shaking the plate for the first two minutes. 7. Read the fluorescence at λex: 380, λem: 460.

Prolyl endopeptidase = target: T2, Prolyl endopeptidase (Homo sapiens, UniProt P48147)
T2 sequence (P48147 whole entry): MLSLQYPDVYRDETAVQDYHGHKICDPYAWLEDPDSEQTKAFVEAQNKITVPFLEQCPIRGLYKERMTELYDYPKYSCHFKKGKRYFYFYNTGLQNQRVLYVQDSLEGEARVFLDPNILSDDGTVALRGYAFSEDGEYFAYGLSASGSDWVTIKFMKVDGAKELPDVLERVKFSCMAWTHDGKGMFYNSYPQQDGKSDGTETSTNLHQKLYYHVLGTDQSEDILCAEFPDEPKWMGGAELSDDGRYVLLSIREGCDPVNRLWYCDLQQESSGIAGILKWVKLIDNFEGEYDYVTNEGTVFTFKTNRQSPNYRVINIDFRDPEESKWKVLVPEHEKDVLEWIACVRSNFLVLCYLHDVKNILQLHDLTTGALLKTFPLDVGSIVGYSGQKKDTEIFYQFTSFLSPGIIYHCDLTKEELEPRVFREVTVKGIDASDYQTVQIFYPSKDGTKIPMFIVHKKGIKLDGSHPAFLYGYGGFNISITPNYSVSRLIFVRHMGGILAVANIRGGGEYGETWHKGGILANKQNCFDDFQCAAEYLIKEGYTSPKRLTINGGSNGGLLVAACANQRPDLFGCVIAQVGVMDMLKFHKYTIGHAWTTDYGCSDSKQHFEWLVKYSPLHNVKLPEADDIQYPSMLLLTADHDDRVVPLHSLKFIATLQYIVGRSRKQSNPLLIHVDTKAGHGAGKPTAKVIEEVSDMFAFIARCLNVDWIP
Protocol: as §1

Dipeptidyl peptidase 4 = Dipeptidyl peptidase 4 (Homo sapiens, UniProt P27487)
Chain of Dipeptidyl peptidase 4 (P27487 whole entry): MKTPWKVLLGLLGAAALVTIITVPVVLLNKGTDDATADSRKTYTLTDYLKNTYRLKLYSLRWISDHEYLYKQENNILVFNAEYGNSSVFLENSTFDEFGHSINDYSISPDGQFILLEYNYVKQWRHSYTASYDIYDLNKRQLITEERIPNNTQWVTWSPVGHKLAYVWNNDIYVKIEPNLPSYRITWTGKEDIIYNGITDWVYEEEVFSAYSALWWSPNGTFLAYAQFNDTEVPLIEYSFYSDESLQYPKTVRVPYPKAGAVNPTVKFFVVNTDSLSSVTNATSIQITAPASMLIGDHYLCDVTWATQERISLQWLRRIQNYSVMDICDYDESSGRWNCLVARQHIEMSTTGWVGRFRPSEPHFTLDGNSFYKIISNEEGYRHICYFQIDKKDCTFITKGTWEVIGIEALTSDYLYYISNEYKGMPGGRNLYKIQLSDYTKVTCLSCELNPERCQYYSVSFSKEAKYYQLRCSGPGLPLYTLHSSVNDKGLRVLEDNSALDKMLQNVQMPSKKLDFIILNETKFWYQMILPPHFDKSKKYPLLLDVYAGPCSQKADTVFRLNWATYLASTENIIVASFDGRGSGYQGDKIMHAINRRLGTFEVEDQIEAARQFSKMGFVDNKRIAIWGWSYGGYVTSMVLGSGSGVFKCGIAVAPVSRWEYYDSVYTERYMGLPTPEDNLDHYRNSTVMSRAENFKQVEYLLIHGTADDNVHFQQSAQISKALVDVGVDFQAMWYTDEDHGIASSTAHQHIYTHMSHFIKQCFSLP
Protocol: as §1

Row | Structure (SMILES) | IC50 (Prolyl endopeptidase FAP) | IC50 (Prolyl endopeptidase) | IC50 (Dipeptidyl peptidase 4)
1 | CC(C)[C@H](NC(=O)CNC(=O)CNC(=O)CN1CCN(CC(=O)O)CCN(CC(=O)O)CCN(CC(=O)O)CC1)C(=O)N[C@H](C)C(=O)N1CCC[C@H]1B(O)O [US11707539, Compound 6522] (HELM PEPTIDE1{[O=C(O)CN1CCN(CC(=O)O)CCN(CC(=O)[*:2])CCN(CC(=O)O)CC1].G.G.V.[dA].[OB(O)[C@@H]1CCCN1[*:1]]}$$$$V2.0) | 3.5 nM and 12 nM | 13000 nM | > 100000 nM
2 | N[C@@H](CCCCNC(=O)CCCNC(=O)CN1CCN(CC(=O)O)CCN(CC(=O)O)CCN(CC(=O)O)CC1)C(=O)N1CCC[C@H]1B(O)O [US11707539, Compound 6551] | 2.6 nM and 2 nM | – | –
